Reference: ChEMBL document CHEMBL1165933, “Diosgenin, a plant-derived sapogenin, enhances regulatory T-cell immunity in the intestine of mice with food allergy” (J Nat Prod, 2010)
The source made the active and inactive calls.

How the values were obtained:
Format in all cases: functional, organism-based
Mus musculus [1] = test: Effect on TGFbeta+ cells in ovalbumin-sensitized and repeatedly challenged BALB/c mouse food allergy model at 200 mg/kg, po by immunohistochemistry; design: dose 200 mg/kg
Mus musculus [2] = test: Enhancement in regulatory T-cell immunity in intestine of ovalbumin-sensitized and repeatedly challenged BALB/c mouse food allergy model assessed as increase in Foxp3+ and IL10+ cells at 100 mg/kg, po by RT-PCR; design: dose 100 mg/kg
Mus musculus [3] = test: Antiallergic effect in ovalbumin-sensitized and repeatedly challenged BALB/c mouse food allergy model assessed as inhibition of duodenal GATA3 expression at 200 mg/kg, po by immunohistochemistry; design: dose 200 mg/kg
Mus musculus [4] = test: Antiallergic effect in ovalbumin-sensitized and repeatedly challenged BALB/c mouse food allergy model assessed as attenuation of duodenal interleukin-4 expression at 100 mg/kg, po by immunohistochemistry; design: dose 100 mg/kg
Mus musculus [5] = test: Effect on T-cell infiltration in ovalbumin-sensitized and repeatedly challenged BALB/c mouse food allergy model assessed as CD3+ cells at 200 mg/kg, po by immunohistochemistry; design: dose 200 mg/kg
Mus musculus [6] = test: Enhancement in regulatory T-cell immunity in intestine of ovalbumin-sensitized and repeatedly challenged BALB/c mouse food allergy model assessed as increase in Foxp3+ and IL10+ cells at 200 mg/kg, po by RT-PCR; design: dose 200 mg/kg
Mus musculus [7] = test: Effect on TGFbeta+ cells in ovalbumin-sensitized and repeatedly challenged BALB/c mouse food allergy model at 100 mg/kg, po by immunohistochemistry; design: dose 100 mg/kg
Mus musculus [8] = test: Enhancement in regulatory T-cell immunity in intestine of ovalbumin-sensitized and repeatedly challenged BALB/c mouse food allergy model assessed as increase in Foxp3+ and IL10+ cells at 100 mg/kg, po by immunohistochemistry; design: dose 100 mg/kg
Mus musculus [9] = test: Antiallergic effect in ovalbumin-sensitized and repeatedly challenged BALB/c mouse food allergy model assessed as inhibition of duodenal GATA3 expression at 100 mg/kg, po by immunohistochemistry; design: dose 100 mg/kg
Mus musculus [10] = test: Effect on T-cell infiltration in ovalbumin-sensitized and repeatedly challenged BALB/c mouse food allergy model assessed as CD3+ cells at 100 mg/kg, po by immunohistochemistry; design: dose 100 mg/kg
Mus musculus [11] = test: Antiallergic effect in ovalbumin-sensitized and repeatedly challenged BALB/c mouse food allergy model assessed as attenuation of duodenal interleukin-4 expression at 200 mg/kg, po by immunohistochemistry; design: dose 200 mg/kg
Mus musculus [12] = test: Enhancement in regulatory T-cell immunity in intestine of ovalbumin-sensitized and repeatedly challenged BALB/c mouse food allergy model assessed as increase in Foxp3+ and IL10+ cells at 200 mg/kg, po by immunohistochemistry; design: dose 200 mg/kg

C[C@@H]1CC[C@@]2(OC1)O[C@H]1C[C@H]3[C@@H]4CC=C5C[C@@H](O)CC[C@]5(C)[C@H]4CC[C@]3(C)[C@H]1[C@@H]2C
active: Activity (Mus musculus [2]) | inhibition (Mus musculus [3]) | inhibition (Mus musculus [4]) | Activity (Mus musculus [6]) | Activity (Mus musculus [8]) | inhibition (Mus musculus [9]) | inhibition (Mus musculus [11]) | Activity (Mus musculus [12])
inactive: Activity (Mus musculus [1]) | Activity (Mus musculus [5]) | Activity (Mus musculus [7]) | Activity (Mus musculus [10])
